In brackets after ≈: the same amount, converted by molar mass.
Legend:
E. coli ATCC 25922 = test: MIC, E. coli ATCC 25922; assay type: cell-based; settings: Alamar Blue read after overnight incubation at 35° C.; for MIC: Escherichia coli, ATCC25922, E. coli; for MIC Ec: E. coli
S. aureus ATCC 13709 = test: MIC, S. aureus ATCC 13709 (Alamar Blue broth microdilution); assay type: cell-based; settings: Alamar Blue read after overnight incubation at 35° C.; for MIC: Staphylococcus aureus, ATCC13709, S. aureus; for MIC Sa: S. aureus

SMILES	MIC (E. coli ATCC 25922) [µg/mL]	MIC (S. aureus ATCC 13709) [µg/mL]	MIC Ec (E. coli ATCC 25922) [µg/mL]	MIC Sa (S. aureus ATCC 13709) [µg/mL]
CNc1cccc2c1[nH]c1nc(Oc3cncnc3)nc(N3CCC[C@@H](N)C3)c12 [3.16]	4 (≈ 10.2 µM)	4 (≈ 10.2 µM)	–	–
CNc1cc(F)cc2c1[nH]c1nc(Oc3cncnc3)nc(N3C[C@H](N)C4(CC4)C3)c12 [4.011]	≤ 0.5	≤ 0.5	–	–
CNc1cc(F)cc2c1[nH]c1nc(Oc3cnc4[nH]cnc4c3)nc(N3CC4CC(N)C4C3)c12 (stereo not drawn) [4.310]	> 16	8 (≈ 17.4 µM)	–	–
CNc1cc(F)cc2c1[nH]c1nc(Oc3cnc(C)nc3)nc(N3CC(N)C4(CC4)C3)c12 (stereo not drawn) [4.068]	–	–	≤0.5	≤0.5
CNc1cc(F)cc2c1[nH]c1nc(Oc3cncc([S+](C)[O-])c3)nc(N3CC4C[C@@H](N)C4C3)c12 (stereo partly drawn) [4.353]	2 (≈ 4.15 µM)	≤ 0.5	–	–
CNc1cc(F)cc2c1[nH]c1nc(Oc3cncc(OC)c3)nc(N3CCC4CNC4C3)c12 (stereo not drawn) [4.166]	2 (≈ 4.45 µM)	≤ 0.5	–	–
CNc1cc(F)cc2c1[nH]c1nc(Oc3cnc4c(c3)ncn4C)nc(N3CC4CC3CC4N)c12 (stereo not drawn) [4.228]	–	–	1 (≈ 2.11 µM)	≤0.5
CNc1cc(F)c(F)c2c1[nH]c1nc(Oc3cnc(N)nc3)nc(N3CC4(CCC4N)C3)c12 (stereo not drawn) [5.07]	–	–	1 (≈ 2.21 µM)	≤0.5
CNc1cc(F)cc2c1[nH]c1nc(Oc3cncc(-c4cncnc4)c3)nc(N3CC4C(N)C4C3)c12 (stereo not drawn) [4.205]	≤ 0.5	≤ 0.5	–	–
CNc1cc(F)cc2c1[nH]c1nc(Oc3cnc(CCO)nc3)nc(N3CC4CC3C[C@@H]4N)c12 (stereo partly drawn) [4.414]	2 (≈ 4.31 µM)	≤ 0.5	–	–
CNc1cc(F)cc2c1[nH]c1nc(Oc3cnc(C)nc3)nc(N3CCNCC3)c12 [4.163]	–	–	≤0.5	≤0.5
CNc1cc(F)cc2c1[nH]c1nc(Oc3ccc4nc5n(c(=O)c4c3)CCC5)nc(N3CC4(CCC4N)C3)c12 (stereo not drawn) [4.377]	–	–	16 (≈ 30.4 µM)	4 (≈ 7.6 µM)
CNc1cc(F)cc2c1[nH]c1nc(Oc3cnc(N)nc3)nc(N3CC4C(N)CC4(C)C3)c12 (mixture of isomers) [4.192]	–	–	4	≤0.5
CNc1cc(F)cc2c1[nH]c1nc(Oc3cnc(C4CC4)nc3)nc(N3CC4CC(N)C4C3)c12 (stereo not drawn) [4.240]	≤ 0.5	≤ 0.5	–	–
Cc1ncc(Oc2nc(N3CC(N)C4(CC4)C3)c3c(n2)[nH]c2c(N)cc(F)cc23)cn1 (stereo not drawn) [2.9]	–	–	16 (≈ 38.1 µM)	16 (≈ 38.1 µM)
CCc1cc(F)cc2c1[nH]c1nc(Oc3cnc(C)nc3)nc(N3CC4CC(N)C4C3)c12 (stereo not drawn) [2.4]	1 (≈ 2.31 µM)	≤ 0.5	–	–
CNc1cc(F)cc2c1[nH]c1nc(Oc3cnc(CC(=O)N4CCOCC4)nc3)nc(N3C[C@H](N)C4(CC4)C3)c12 [4.369]	1 (≈ 1.83 µM)	≤ 0.5	–	–
CNc1cccc2c1[nH]c1nc(Sc3cnc4cccnc4c3)nc(N3CC4CNC(C4)C3)c12 (stereo not drawn) [1.47]	2 (≈ 4.27 µM)	≤ 0.5	–	–
CCOC(=O)c1ncc(Oc2nc(N3CC4C[C@@H](N)C4C3)c3c(n2)[nH]c2c(NC)cc(F)cc23)cn1 (stereo partly drawn) [4.401]	≤ 0.5	≤ 0.5	–	–
CNc1cc(F)cc2c1[nH]c1nc(Oc3cnc(SC)nc3)nc(N3CC4CCNC4C3)c12 (stereo not drawn) [4.198]	≤ 0.5	≤ 0.5	–	–
CCNC(=O)c1cncc(Oc2nc(NCC)c3c(n2)[nH]c2c(NC)cc(F)cc23)c1 [4.384]	–	–	>16	1 (≈ 2.36 µM)

SMILES	MIC (E. coli ATCC 25922) [µg/mL]	MIC (S. aureus ATCC 13709) [µg/mL]	MIC Ec (E. coli ATCC 25922) [µg/mL]	MIC Sa (S. aureus ATCC 13709) [µg/mL]
CNc1cccc2c1[nH]c1nc(Oc3cnc(C)nc3)nc(N3CC4C(C3)C4NC(=O)CN)c12 (stereo not drawn) [3.18]	> 16	4 (≈ 8.7 µM)	–	–
CNc1cc(F)cc2c1[nH]c1nc(Oc3cnc4c(c3)ncn4C)nc(N3CC4CC(N)C4C3)c12 (stereo not drawn) [4.226]	–	–	2 (≈ 4.22 µM)	≤0.5
CNc1cc(F)cc2c1[nH]c1nc(Oc3cnc(C)nc3)nc(N[C@@H]3CC4CC3CN4)c12 (stereo partly drawn) [4.155]	> 16	2 (≈ 4.6 µM)	–	–
CNc1cc(F)cc2c1[nH]c1nc(Oc3cnc(C)nc3)nc(-c3cncnc3)c12 [4.449]	> 16	≤ 0.5	–	–
CNc1cc(F)cc2c1[nH]c1nc(Oc3cnc(C)nc3)nc(N3CC4CC(N)C4C3)c12 (stereo not drawn) [4.111]	–	–	≤0.5	≤0.5
CNc1cc(F)cc2c1[nH]c1nc(Oc3cnc(C)nc3)nc(N3CC[C@H](N)[C@@H](F)C3)c12 [4.144]	1 (≈ 2.27 µM)	≤ 0.5	–	–
CNc1cc(F)cc2c1[nH]c1nc(Oc3cnc(N)nc3)nc(N3CC(NC(=O)CN)C4(CC4)C3)c12 (stereo not drawn) [4.182]	–	–	16 (≈ 32.5 µM)	2 (≈ 4.06 µM)
CNc1cc(F)cc2c1[nH]c1nc(Oc3cnc(N)nc3)nc(N3CC4CC4(CN)C3)c12 (stereo not drawn) [4.185]	8 (≈ 18.4 µM)	≤ 0.5	–	–
CNc1cccc2c1[nH]c1nc(Sc3cnc4cccnc4c3)nc(N3CCC4(CC4N)C3)c12 (stereo not drawn) [1.26]	–	–	1 (≈ 2.13 µM)	≤0.5
CNc1cc(F)cc2c1[nH]c1nc(Oc3cnc(N4CC(C)(N)C4)nc3)nc(N3CCC4(C[C@@H]4N)C3)c12 (stereo partly drawn) [4.341]	–	–	1 (≈ 1.98 µM)	≤0.5
CNc1cc(F)cc2c1[nH]c1nc(Oc3cnc(SC)nc3)nc(N3CCC(N)C3)c12 (stereo not drawn) [4.199]	–	–	≤0.5	≤0.5
CNc1cc(F)cc2c1[nH]c1nc(Oc3cncc(F)c3)nc(N3CC4C(N)C4C3)c12 (stereo not drawn) [4.055]	≤ 0.5	≤ 0.5	–	–
CNc1cc(F)cc2c1[nH]c1nc(Oc3cnc(C)nc3)nc(-c3ccc(Cl)c(N)c3)c12 [4.419]	> 16	≤ 0.5	–	–
CNc1cccc2c1[nH]c1nc(Sc3cncnc3)nc(N3CC4C(N)C4C3)c12 (stereo not drawn) [1.43]	8 (≈ 19.8 µM)	2 (≈ 4.94 µM)	–	–
CNc1cc(F)cc2c1[nH]c1nc(Oc3cnc4ccoc4c3)nc(N3CC4C(N)C4C3)c12 (stereo not drawn) [4.291]	≤ 0.5	≤ 0.5	–	–
CNc1cccc2c1[nH]c1nc(Oc3cncnc3)nc(N3CC4C(C3)C4NCC3CC3)c12 (stereo not drawn) [3.13]	1 (≈ 2.26 µM)	≤ 0.5	–	–
CNc1cc(F)cc2c1[nH]c1nc(Oc3cnc(S(C)(=O)=O)nc3)nc(N3CC4C(N)CC4(C)C3)c12 (stereo not drawn) [4.385]	–	–	≤0.5	≤0.5
CNc1cc(F)cc2c1[nH]c1nc(Oc3cnc4cccnc4c3)nc(N3CC4CCN[C@H]4C3)c12 (stereo partly drawn) [4.044]	≤ 0.5	≤ 0.5	–	–
CNc1cc(F)cc2c1[nH]c1nc(Oc3cncnc3)nc(N3CC4CC(N)C4C3)c12 (stereo not drawn) [4.026]	≤ 0.5	≤ 0.5	–	–
CNc1cc(F)cc2c1[nH]c1nc(Oc3cncnc3)nc(N3CC4C(N)C4C3)c12 (stereo not drawn) [4.001]	–	–	≤0.5	≤0.5
CNc1cccc2c1[nH]c1nc(Sc3cnc4ccc[n+]([O-])c4c3)nc(N3CC[C@@H](C)[C@@H](N)C3)c12 [1.35]	2 (≈ 4.11 µM)	≤ 0.5	–	–

SMILES	MIC (E. coli ATCC 25922) [µg/mL]	MIC (S. aureus ATCC 13709) [µg/mL]	MIC Ec (E. coli ATCC 25922) [µg/mL]	MIC Sa (S. aureus ATCC 13709) [µg/mL]
CNc1ccc(C)c2c1[nH]c1nc(Sc3cnc4ccc[n+]([O-])c4c3)nc(N3CC(N)C4(CC4)C3)c12 (stereo not drawn) [1.72]	1 (≈ 2.01 µM)	≤ 0.5	–	–
CNc1cc(F)cc2c1[nH]c1nc(Oc3cnc(C)nc3)nc(N3CCNC4(CC4)C3)c12 [4.132]	–	–	2 (≈ 4.6 µM)	≤0.5
N[C@@H]1CCN(c2nc(Sc3cnc4ccc[n+]([O-])c4c3)nc3[nH]c4c(Cl)cccc4c23)C1 [1.4]	64 (≈ 138 µM)	32 (≈ 69 µM)	–	–
CNc1cc(F)cc2c1[nH]c1nc(Oc3cnc(CC(=O)N4CCC(N)C4)nc3)nc(N3CC(N)C4(CC4)C3)c12 (stereo not drawn) [4.372]	–	–	16 (≈ 29.3 µM)	4 (≈ 7.32 µM)
CNc1cc(F)cc2c1[nH]c1nc(Oc3cnc(C4CC4)nc3)nc(N3CC4NCCCC43)c12 (stereo not drawn) [4.247]	8 (≈ 17.4 µM)	1 (≈ 2.17 µM)	–	–
CCc1ncc(Oc2nc(N3CC4CC4(CN)C3)c3c(n2)[nH]c2c(NC)cc(F)cc23)cn1 (stereo not drawn) [4.261]	1 (≈ 2.23 µM)	≤ 0.5	–	–
CNc1cc(F)cc2c1[nH]c1nc(Oc3cnc(C(C)(C)N)nc3)nc(N3C[C@H]4CC3C[C@H]4N)c12 [4.442]	2 (≈ 4.19 µM)	1 (≈ 2.09 µM)	–	–
CNc1cc(F)cc2c1[nH]c1nc(Oc3cnc(C(C)(C)O)nc3)nc(N3CC4CC3C[C@@H]4N)c12 (stereo partly drawn) [4.411]	≤ 0.5	≤ 0.5	–	–
CNc1cc(F)cc2c1[nH]c1nc(Oc3cnc(CN)nc3)nc(N3CC4CC3CC4N)c12 (stereo not drawn) [4.393]	–	–	1 (≈ 2.22 µM)	≤0.5
CNc1cc(F)cc2c1[nH]c1nc(Oc3ccc4c(c3)C(=O)NCC4)nc(N3CCC4(CC4N)C3)c12 (stereo not drawn) [4.300]	–	–	≤0.5	≤0.5
CNc1cc(F)cc2c1[nH]c1nc(Oc3cnc4ccoc4c3)nc(N3CC4CCC(N)C4C3)c12 (stereo not drawn) [4.293]	–	–	1 (≈ 2.11 µM)	≤0.5
CNc1cccc2c1[nH]c1nc(Oc3cncc(C#N)c3)nc(N3CCC(CN)C3)c12 (stereo not drawn) [3.57]	8 (≈ 19.3 µM)	1 (≈ 2.41 µM)	–	–
CNc1cccc2c1[nH]c1nc(Sc3cnc4cccnc4c3)nc(N3CC(N)C4(CC4)C3)c12 (stereo not drawn) [1.27]	1 (≈ 2.13 µM)	≤ 0.5	–	–
CNc1cc(F)cc2c1[nH]c1nc(Oc3cncnc3)nc(N3CCC4(CCNC4)C3)c12 (stereo not drawn) [4.033]	4 (≈ 9.21 µM)	≤ 0.5	–	–
CNc1cc(F)cc2c1[nH]c1nc(Oc3cnc(CC(=O)OC)nc3)nc(N3CC4C[C@@H](N)C4C3)c12 (stereo partly drawn) [4.367]	≤ 0.5	≤ 0.5	–	–
CNc1cc(F)cc2c1[nH]c1nc(Oc3cnc(N4CCN(C(C)=O)CC4)nc3)nc(N3CCC(N)C3)c12 (stereo not drawn) [4.229]	–	–	2 (≈ 3.84 µM)	≤0.5
CNc1cc(F)cc2c1[nH]c1nc(Oc3cnc(C)nc3)nc(N3CC(N)CC3C)c12 (stereo not drawn) [4.115]	–	–	8 (≈ 18.9 µM)	1 (≈ 2.37 µM)
CNc1cc(F)cc2c1[nH]c1nc(Oc3cnc(C4CC4)nc3)nc(N3CC4C(CN)C4C3)c12 (stereo not drawn) [4.249]	≤ 0.5	≤ 0.5	–	–
CNc1cc(F)cc2c1[nH]c1nc(Oc3cnc(C)nc3)nc(N3CC[C@@H](N)C3)c12 [4.070]	1 (≈ 2.45 µM)	≤ 0.5	–	–
CNc1cc(F)cc2c1[nH]c1nc(Oc3cncnc3)nc(N3CCCC(C)(N)C3)c12 (stereo not drawn) [4.024]	2 (≈ 4.73 µM)	≤ 0.5	–	–
CNc1cc(F)cc2c1[nH]c1nc(Oc3cnc(C)nc3)nc(N3CCNCC34CC4)c12 [4.133]	–	–	>16	>16

Reference: patent US10858360B2, “Tricyclic gyrase inhibitors” (priority 2011, dated 2020)
